# Square brackets hold non-standard residues; d marks the D form. Ends that are not written are not given here.
# How the values were obtained:
# cells = test: Standard cell attachment assay; format: cell-based; set-up: key: + = positive cell attachment; - = no cell attachment; details: for CELL ATTACHMENT ASSAY RESULTS, BDDE: peptide coupled to HA by epoxide (BDDE) method; for CELL ATTACHMENT ASSAY RESULTS, SODIUM PERIODATE: peptide coupled to HA by sodium periodate method; for CELL ATTACHMENT ASSAY RESULTS, TRESYL CHLORIDE: peptide coupled to HA by tresyl chloride method
# Experimental: The conjugates prepared by the above described methods, as well as conjugates containing other RGD-peptide sequences, were tested for cell attachment using the following procedures.
# New subcultures are made the day before the assay and allowed to grow to 75-80% confluency. When a 100×20 mm dish was 80-90% confluent the cells were detached by adding 4 ml of trypsin/EDTA. When the cells become rounded they are suspended by adding 6 ml of complete media to the 4 ml of trypsin/EDTA (10 ml total). Forty to fifty percent of the cell suspensions were transferred to a new 100×20 mm dish and cultured as usual. One 100×20 mm dish is sufficient to perform 6 cell attachments.
# Samples to be tested are placed in 0.5 ml blocking solution (HBSS, 3% BSA, 25 mM Hepes pH 7.0) until needed. Each 100×20 mm dish was trypsinized using 4 ml of trypsin/EDTA for approximately 10 minutes or until cells were easily detached. Cells should not be detached too soon or they will remain aggregated during the cell attachment assay. It is desirable to obtain a good single cell suspension. If clumps of cells are observed let them settle out before using and adjust for the loss of cells in the assay.
# The cells were detached from the plate using 6 ml of serum free media (SFM) supplemented with ITS+ (Insulin Transferrin Selenium (Collaborative Research, Inc., Bedford, Mass.), SFM+ITS+=SFM+) for a total volume of 10 ml (4 ml of trypsin/EDTA+6 ml of SFM+). The cells were centrifuged one time to pellet the cells and then they were resuspended in 5 ml of soybean trypsin inhibitor (SBTI) diluted in SFM+. The cells were incubated in SBTI/SFM+ for 10 minutes in a 37° C. water bath. While trypsin was being inactivated, the blocking buyer was removed and the samples suspended in 1 ml of SFM+.
# Cells were centrifuged 1 time to remove SBTI. Resuspended cells in 6 ml of SFM+ created a good single cell suspension. If necessary, the resuspended cells can sit on the bench for 5 minutes to let aggregates settle to the bottom before applying to the matrices. Approximately 1 ml of cell suspension per matrix (1-2 mg) was used. The matrix/cells were placed on a rocker in the incubator and cell attachment allowed to go for one to one and half hours. Thereafter, samples were transferred to a 12 well dish and washed 2 times with PBS using an orbital shaker. Neutral red solution (diluted 1:100) was added to PBS and incubated with the cells for 20 minutes on an orbital shaker. Two mls of stain/fix (PBS, 8% formaldehyde, crystal violet 0.0008%) was added and staining allowed to proceed for 2 hours at room temperature on the orbital shaker. Formaldehyde solution was removed and distilled water added. Cell attachment was assessed by microscopy.
# [1] = test system: full thickness wounds in guinea pigs; test: Full thickness wounds in guinea pigs; format: in vivo, guinea pig; details: Alcian staining; for residence time: Sodium periodate method; for residence time in the wound bed: Epoxide (BDDE) method; for residence time in the dermal wound: Tresyl chloride method, BDDE cross-linked HA created at pH 6
# Experimental: Following the procedures for the full thickness wound model in guinea pigs described in Cheng et al., Arch. Dermatol. 124:221-226 (1988), which is incorporated herein by reference, various peptide-HA conjugates prepared by the above-described methods were analyzed.
# The residence times were determined by Alcian staining and were as follows: […]
Substance,"CELL ATTACHMENT ASSAY RESULTS, BDDE (cells)","CELL ATTACHMENT ASSAY RESULTS, SODIUM PERIODATE (cells)","CELL ATTACHMENT ASSAY RESULTS, TRESYL CHLORIDE (cells)",residence time [1],residence time in the wound bed [1] [days],residence time in the dermal wound [1] [days]
"G R R R G G R G D I P TNH2 (GRRRGGRGDIPT-NH2; also: hyaluronate conjugate) [SEQ ID No. 9, RGD peptide, tested conjugated to hyaluronate (HA)]",+,-,+,,,
"Ac R R G R G D I P KNH2 (Ac-RRGRGDIPK-NH2; also: hyaluronate conjugate) [SEQ ID No. 14, RGD peptide, tested conjugated to hyaluronate (HA)]",,-,+,,,
"G R R R R R G G R G D I P TNH2 (GRRRRRGGRGDIPT-NH2; also: hyaluronate conjugate) [SEQ ID No. 3, RGD peptide, tested conjugated to hyaluronate (HA)]",+,+,+,,,
"G R R G R R G R G D I P TNH2 (GRRGRRGRGDIPT-NH2; also: hyaluronate conjugate) [SEQ ID No. 18, RGD peptide, tested conjugated to hyaluronate (HA)]",-,+,,,,
"G R R R R R G G G R G D I PNH2 (GRRRRRGGGRGDIP-NH2; also: hyaluronate conjugate) [SEQ ID No. 12, RGD peptide, tested conjugated to hyaluronate (HA)]",,+,+,7 to 10 days,,
"G dR dR dR dR dR G G G dR G D S P A S S K (G[dR][dR][dR][dR][dR]GGG[dR]GDSPASSK; also: hyaluronate conjugate) [SEQ ID No. 1, RGD peptide, tested conjugated to hyaluronate (HA)]",+,+,+,at least 30 days,7 to 10,10 to 14
"G R R R R G G G R G D I P TNH2 (GRRRRGGGRGDIPT-NH2; also: hyaluronate conjugate) [SEQ ID No. 4, RGD peptide, tested conjugated to hyaluronate (HA)]",+,+,+,,,
"G R R R G G R G D I PNH2 (GRRRGGRGDIP-NH2; also: hyaluronate conjugate) [SEQ ID No. 7, RGD peptide, tested conjugated to hyaluronate (HA)]",+,-,+,,,
"R R R R G R G D I P TNH2 (RRRRGRGDIPT-NH2; also: hyaluronate conjugate) [SEQ ID No. 10, RGD peptide, tested conjugated to hyaluronate (HA)]",+,+,,,,
"Ac G R R R R R G G G R G D I P KNH2 (Ac-GRRRRRGGGRGDIPK-NH2; also: hyaluronate conjugate) [SEQ ID No. 13, RGD peptide, tested conjugated to hyaluronate (HA)]",,+,+,,,
"Ac R R R G G R G D I P KNH2 (Ac-RRRGGRGDIPK-NH2; also: hyaluronate conjugate) [SEQ ID No. 6, RGD peptide, tested conjugated to hyaluronate (HA)]",+,-,+,,,
"G R R R R R G R G D I P TNH2 (GRRRRRGRGDIPT-NH2; also: hyaluronate conjugate) [SEQ ID No. 2, RGD peptide, tested conjugated to hyaluronate (HA)]",+,+,+,,,
"R R R G R G D I P TNH2 (RRRGRGDIPT-NH2; also: hyaluronate conjugate) [SEQ ID No. 11, RGD peptide, tested conjugated to hyaluronate (HA)]",+,,,,,
"Ac G dR dR dR dR dR G G G dR G D S P A S S K (Ac-G[dR][dR][dR][dR][dR]GGG[dR]GDSPASSK; also: hyaluronate conjugate) [SEQ ID No. 5, RGD peptide, tested conjugated to hyaluronate (HA)]",+,+,,7 to 10 days,7 to 10,10 to 14
"G R R R G G G R G D I P TNH2 (GRRRGGGRGDIPT-NH2; also: hyaluronate conjugate) [SEQ ID No. 8, RGD peptide, tested conjugated to hyaluronate (HA)]",+,-,+,,,
"G R R G R R G R G D TNH2 (GRRGRRGRGDT-NH2; also: hyaluronate conjugate) [SEQ ID No. 19, RGD peptide, tested conjugated to hyaluronate (HA)]",,,,7 to 10 days,,

# — patent publication US5677276A, “Immobilization of peptides to hyaluronate” (La Jolla Cancer Research Foundation, priority 1995, dated 1997)
